{
  "source": "patent US8298993B2",
  "about": "“Herbicidal composition and method of use thereof” (Syngenta Crop Protection LLC, priority 2006, dated 2012)",
  "key": {"[1]": {"system": "large crabgrass (Digitaria sanguinalis)", "experiment": "Glasshouse trial, control of large crabgrass, post-emergence application", "assay_type": "in vivo", "procedure": "A glasshouse trial was carried out. Large crabgrass seeds were sown into standard glasshouse potting mix (1:1 v/v Promix:Vero sand soil) contained in 10 cm square plastic pots. Treatments were replicated three times. Mesotrione (in the form Callisto® 480SE) was applied post-emergence to large crabgrass (Digitaria sanguinalis) at either 12 g ai/ha or 24 g ai/ha with or without s-metolachlor (in the form Dual Magnum®). When used, s-metolachlor was applied at a rate of 500 g ai/ha or 1000 g ai/ha. The adjuvant system was X-77 at 0.1% v/v in deionised water. 200 liters of herbicide/adjuvant system was used per hectare. General weed control was evaluated at 7 and 14 days after treatment (DAT). It is noted that all herbicides were applied at reduced field rates because herbicide effects are magnified in a glasshouse environment. Rates were chosen to give a 50 to 70% level of control with herbicides applied alone as this allows for detection of any synergistic effect when tank mixtures are used. […] The results were evaluated using the Colby formula. The expected result for (A+B) is (A+B)−(A×B/100) where A and B are the ‘observed’ results for A and B on their own."}, "large crabgrass": {"system": "large crabgrass", "experiment": "Control of large crabgrass, pre-emergent application of the herbicides", "assay_type": "in vivo, Digitaria sanguinalis", "conditions": "s-metolachlor 5 g ai/ha in the absence of mesotrione"}, "[2]": {"system": "white clover (Trifolium repens)", "experiment": "Glasshouse trial, control of white clover, post-emergence application", "assay_type": "in vivo", "conditions": "16 DAT", "procedure": "A glasshouse trial was carried out. White clover seeds were sown into standard glasshouse potting mix (1:1 v/v Promix:Vero sand soil) contained in 10 cm square plastic pots. Treatments were replicated three times. Mesotrione (in the form Callisto®480SE) was applied post-emergence to white clover (Trifolium repens) at either 50 g ai/ha or 100 g ai/ha with or without s-metolachlor (in the form Dual Magnum®). […] The adjuvant system was X-77 at 0.1% v/v in deionised water. 200 liters of herbicide/adjuvant system was used per hectare. General weed control was evaluated at 10 and 16 days after treatment (DAT). It is noted that all herbicides were applied at reduced field rates because herbicide effects are magnified in a glasshouse environment. Rates were chosen to give a 50 to 70% level of control with herbicides applied alone as this allows for detection of any synergistic effect when tank mixtures are used. […] The results were evaluated using the Colby formula. The expected result for (A+B) is (A+B)−(A×B/100) where A and B are the ‘observed’ results for A and B on their own."}},
  "data": [
    {"compound": "s-metolachlor", "values": [
      {"measurement": "control of large crabgrass, herbicide alone", "setting": "[1]; first experiment, s-metolachlor on its own (500 or 1000 g ai/ha), post-emergence, 14 DAT", "value": "no control"},
      {"measurement": "control of large crabgrass, herbicide alone", "setting": "[1]; repeat experiment, s-metolachlor 500 g ai/ha in the absence of mesotrione, 14DAT", "value": 7, "unit": "%"},
      {"measurement": "control of large crabgrass, herbicide alone", "setting": "[1]; repeat experiment, s-metolachlor 1000 g ai/ha in the absence of mesotrione, 14DAT", "value": 7, "unit": "%"},
      {"measurement": "control of large crabgrass, herbicide alone", "setting": "large crabgrass", "value": 95, "unit": "%"},
      {"measurement": "control of white clover, herbicide alone", "setting": "[2]; s-metolachlor on its own at 500 g ai/ha", "value": 3, "unit": "%"}
    ]},
    {"compound": "CS(=O)(=O)c1ccc(C(=O)C2C(=O)CCCC2=O)c([N+](=O)[O-])c1", "note": "[mesotrione, 2-(2′-nitro-4′-methylsulphonylbenzoyl)-1,3-cyclohexanedione]", "values": [
      {"measurement": "control of large crabgrass, herbicide alone", "setting": "[1]; mesotrione alone, post-emergence, 7 DAT", "value": "relatively high"},
      {"measurement": "control of white clover, herbicide alone", "setting": "[2]; mesotrione alone at the lower rate (50 g ai/ha)", "value": 32, "unit": "%"}
    ]}
  ]
}
